From patent US11339161B2, “Triazolo pyridines as modulators of gamma-secretase” (Boehringer Ingelheim International GmbH, priority 2017, dated 2022) come the findings set out here.

One assay concerns the target CSF1R (FMS) (Homo sapiens, UniProt P07333). Put plainly: Z'-LYTE SelectScreen biochemical kinase assay CSF1R (FMS). An excerpt:
(§1) Thermo Fisher Scientific SelectScreen™ Biochemical Kinase Profiling Service Z′-LYTE™ Screening Protocol and Assay Conditions Assay Theory
(§2) The […] biochemical assay employs a fluorescence-based, coupled-enzyme format and is based on the differential sensitivity of phosphorylated and non-phosphorylated peptides to proteolytic cleavage. The peptide substrate is labeled with two fluorophores—one at each end—that make up a FRET pair. In the primary reaction, the kinase transfers the gamma-phosphate of ATP to a single tyrosine, serine or threonine residue in a synthetic FRET-peptide. In the secondary reaction, a site-specific protease recognizes and cleaves non-phosphorylated FRET-peptides. Phosphorylation of FRET-peptides suppresses cleavage by the Development Reagent. Cleavage disrupts FRET between the donor (i.e., coumarin) and acceptor (i.e., fluorescein) fluorophores on the FRET-peptide, whereas uncleaved, phosphorylated FRET-peptides maintain FRET. A ratiometric method, which calculates the ratio (Emission Ratio=Coumarin emission (445 nm)/Fluorescein emission (520 nm)) of donor emission to acceptor emission after excitation of the donor fluorophore at 400 nm, is used to quantitate reaction progress, as shown in the equation below. A significant benefit of this ratiometric method for quantitating reaction progress is the elimination of well-to-well variations in FRET-peptide concentration and signal intensities. As a result, the assay yields very high Z′-factor values (>0.7) at a low percent phosphorylation. Both cleaved and uncleaved FRET-peptides contribute to the fluorescence signals and therefore to the Emission Ratio. The extent of phosphorylation of the FRET-peptide can be calculated from the Emission Ratio. The Emission Ratio will remain low if the FRET-peptide is phosphorylated (i.e., no kinase inhibition) and will be high if the FRET-peptide is non-phosphorylated (i.e., kinase inhibition).
(§3) The Test Compounds are screened in 1% DMSO (final) in the well. For 10 point titrations, 3-fold serial dilutions are conducted from the starting concentration of the customer's choosing.
(§4) All Peptide/Kinase Mixtures are diluted to a 2× working concentration in the appropriate Kinase Buffer (see section Kinase Specific Assay Conditions for a complete description).
(§5) All ATP Solutions are diluted to a 4× working concentration in Kinase Buffer (50 mM HEPES pH 7.5, 0.01% BRIJ-35, 10 mM MgCl2, 1 mM EGTA). ATP Km apparent is previously determined using a Z″-LYTE assay.
(§6) The Development Reagent is diluted in Development Buffer (see section Kinase-Specific Assay Conditions—Direct and Cascade for a complete description).
(§7) Bar-coded Corning, low volume NBS, black 384-well plate (Corning Cat. #4514) • 1. 100 nL—100× Test Compound in 100% DMSO • 2. 2.4 μL—Kinase buffer • 3. 5 μL—2× Peptide/Kinase Mixture • 4. 2.5 μL—4×ATP Solution • 5. 30—second plate shake • 6. 60—minute Kinase Reaction incubation at room temperature • 7. 5 μL—Development Reagent Solution • 8. 30—second plate shake • 9. 60—minute Development Reaction incubation at room temperature • 10. Read on fluorescence plate reader and analyze the data Z′-LYTE Assay Controls
(§8) SelectScreen Kinase Profiling Service uses XLfit from IDBS. The dose response curve is curve fit to model number 205 (sigmoidal dose-response model).
The 2×CSF1R (FMS)/Tyr 01 mixture is prepared in 50 mM HEPES pH 7.5, 0.01% BRIJ-35, 10 mM MgCl2, 1 mM EGTA. The final 10 μL Kinase Reaction consists of 0.2-40 ng CSF1R (FMS) and 2 μM Tyr 01 in 50 mM HEPES pH 7.5, 0.01% BRIJ-35, 10 mM MgCl2, 1 mM EGTA. After the 1 hour Kinase Reaction incubation, 5 μL of a 1:256 dilution of Development Reagent B is added.

The target of another assay is FGFR1 (Homo sapiens, UniProt P11362). Put plainly: Z'-LYTE SelectScreen biochemical kinase assay FGFR1.
Chain of FGFR1 (P11362 22-822): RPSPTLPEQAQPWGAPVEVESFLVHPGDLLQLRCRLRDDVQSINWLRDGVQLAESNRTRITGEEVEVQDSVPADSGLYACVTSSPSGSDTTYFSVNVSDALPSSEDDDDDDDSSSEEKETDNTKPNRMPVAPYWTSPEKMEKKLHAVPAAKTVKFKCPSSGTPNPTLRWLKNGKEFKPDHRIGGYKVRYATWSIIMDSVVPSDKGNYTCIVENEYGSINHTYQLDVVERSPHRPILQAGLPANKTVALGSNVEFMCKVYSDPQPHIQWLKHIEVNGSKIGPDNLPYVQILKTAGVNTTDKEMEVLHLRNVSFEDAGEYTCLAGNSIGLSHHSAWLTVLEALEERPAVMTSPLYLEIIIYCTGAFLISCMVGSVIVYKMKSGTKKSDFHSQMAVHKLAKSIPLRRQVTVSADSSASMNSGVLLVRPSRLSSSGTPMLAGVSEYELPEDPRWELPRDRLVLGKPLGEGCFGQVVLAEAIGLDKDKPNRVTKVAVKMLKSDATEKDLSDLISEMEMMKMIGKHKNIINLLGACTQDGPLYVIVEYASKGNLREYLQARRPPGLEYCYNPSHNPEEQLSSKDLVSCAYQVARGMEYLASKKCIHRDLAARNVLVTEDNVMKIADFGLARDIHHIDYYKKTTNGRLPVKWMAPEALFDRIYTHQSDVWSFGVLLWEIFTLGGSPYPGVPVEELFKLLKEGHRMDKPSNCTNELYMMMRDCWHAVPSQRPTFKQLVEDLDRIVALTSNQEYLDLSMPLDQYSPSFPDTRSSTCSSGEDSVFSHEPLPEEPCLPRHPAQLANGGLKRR
From the text: as §1, §2, §3, §4, §5, §6, §7, §8
The 2×FGFR1/Tyr 04 mixture is prepared in 50 mM HEPES pH 7.5, 0.01% BRIJ-35, 10 mM MgCl2, 4 mM MnCl2, 1 mM EGTA, 2 mM DTT. The final 10 μL Kinase Reaction consists of 0.44-2.45 ng FGFR1 and 2 μM Tyr 04 in 50 mM HEPES pH 7.5, 0.01% BRIJ-35, 10 mM MgCl2, 2 mM MnCl2, 1 mM EGTA, 1 mM DTT. After the 1 hour Kinase Reaction incubation, 5 μL of a 1:64 dilution of Development Reagent B is added.

For the next assay, the target named is PDGFRA (PDGFR alpha) (Homo sapiens, UniProt P16234). In words: Z'-LYTE SelectScreen biochemical kinase assay PDGFRA (PDGFR alpha).
Chain of PDGFRA (PDGFR alpha) (P16234 24-1089): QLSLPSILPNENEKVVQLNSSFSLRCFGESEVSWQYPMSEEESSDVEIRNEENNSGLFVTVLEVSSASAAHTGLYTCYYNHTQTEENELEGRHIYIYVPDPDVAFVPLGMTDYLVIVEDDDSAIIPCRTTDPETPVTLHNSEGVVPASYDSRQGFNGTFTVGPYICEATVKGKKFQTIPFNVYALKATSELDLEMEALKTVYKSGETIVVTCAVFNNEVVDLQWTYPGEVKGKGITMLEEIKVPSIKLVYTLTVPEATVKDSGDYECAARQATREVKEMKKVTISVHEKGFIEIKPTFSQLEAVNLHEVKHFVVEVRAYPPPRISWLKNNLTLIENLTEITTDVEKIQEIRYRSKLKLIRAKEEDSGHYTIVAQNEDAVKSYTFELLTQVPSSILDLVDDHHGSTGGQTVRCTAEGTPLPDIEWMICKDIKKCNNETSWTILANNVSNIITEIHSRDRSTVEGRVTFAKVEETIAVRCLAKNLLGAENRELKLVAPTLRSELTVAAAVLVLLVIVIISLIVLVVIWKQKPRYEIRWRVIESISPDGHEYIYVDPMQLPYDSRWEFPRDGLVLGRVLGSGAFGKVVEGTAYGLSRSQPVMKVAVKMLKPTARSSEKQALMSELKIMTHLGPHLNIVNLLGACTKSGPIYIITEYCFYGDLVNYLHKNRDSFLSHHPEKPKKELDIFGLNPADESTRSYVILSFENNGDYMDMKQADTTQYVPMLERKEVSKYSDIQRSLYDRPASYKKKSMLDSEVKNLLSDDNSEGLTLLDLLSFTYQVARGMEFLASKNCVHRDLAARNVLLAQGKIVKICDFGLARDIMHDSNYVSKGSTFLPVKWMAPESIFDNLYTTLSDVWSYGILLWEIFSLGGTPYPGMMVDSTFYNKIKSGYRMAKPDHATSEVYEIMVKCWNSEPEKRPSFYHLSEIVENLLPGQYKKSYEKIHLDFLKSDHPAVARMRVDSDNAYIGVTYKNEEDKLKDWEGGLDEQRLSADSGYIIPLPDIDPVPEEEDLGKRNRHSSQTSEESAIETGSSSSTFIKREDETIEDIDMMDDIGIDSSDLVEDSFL
From the text: as §1, §2, §3, §4, §5, §6, §7, §8
The 2×PDGFRA (PDGFR alpha)/Tyr 04 mixture is prepared in 50 mM HEPES pH 7.5, 0.01% BRIJ-35, 10 mM MgCl2, 4 mM MnCl2, 1 mM EGTA, 2 mM DTT. The final 10 μL Kinase Reaction consists of 1.54-22.6 ng PDGFRA (PDGFR alpha) and 2 μM Tyr 04 in 50 mM HEPES pH 7.5, 0.01% BRIJ-35, 10 mM MgCl2, 2 mM MnCl2, 1 mM EGTA, 1 mM DTT. After the 1 hour Kinase Reaction incubation, 5 μL of a 1:64 dilution of Development Reagent B is added.

The target of the next assay is RPS6KB1 (p70S6K) (Homo sapiens, UniProt P23443). Put plainly: Z'-LYTE SelectScreen biochemical kinase assay RPS6KB1 (p70S6K).
Chain of RPS6KB1 (p70S6K) (P23443 whole entry): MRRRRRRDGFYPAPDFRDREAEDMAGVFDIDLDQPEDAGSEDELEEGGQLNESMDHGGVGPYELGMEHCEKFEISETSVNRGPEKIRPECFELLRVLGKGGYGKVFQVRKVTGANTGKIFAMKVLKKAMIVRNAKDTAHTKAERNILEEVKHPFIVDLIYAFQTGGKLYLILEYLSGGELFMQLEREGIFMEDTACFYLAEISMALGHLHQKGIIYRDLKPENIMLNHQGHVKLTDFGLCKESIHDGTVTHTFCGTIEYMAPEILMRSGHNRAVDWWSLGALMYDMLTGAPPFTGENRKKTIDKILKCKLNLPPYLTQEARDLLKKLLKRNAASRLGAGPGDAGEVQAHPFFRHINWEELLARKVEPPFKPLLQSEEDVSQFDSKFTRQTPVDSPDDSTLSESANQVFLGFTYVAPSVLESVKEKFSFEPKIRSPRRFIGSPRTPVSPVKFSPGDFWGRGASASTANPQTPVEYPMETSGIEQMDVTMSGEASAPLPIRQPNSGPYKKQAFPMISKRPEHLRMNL
From the text: as §1, §2, §3, §4, §5, §6, §7, §8
The 2×RPS6 KB1 (p70S6K)/Ser/Thr 07 mixture is prepared in 50 mM HEPES pH 7.5, 0.01% BRIJ-35, 10 mM MgCl2, 1 mM EGTA. The final 10 μL Kinase Reaction consists of 2.87-17.7 ng RPS6 KB1 (p70S6K) and 2 μM Ser/Thr 07 in 50 mM HEPES pH 7.5, 0.01% BRIJ-35, 10 mM MgCl2, 1 mM EGTA. After the 1 hour Kinase Reaction incubation, 5 μL of a 1:45000 dilution of Development Reagent A is added.

[1] abbreviates: 10 μmolar compound concentration, ATP at Km app, read-out: CSF1R (FMS) inhibition.
Where [2] appears, read: read-out: % Inhibition mean CSF1R (FMS).
Where [3] appears, read: 10 μmolar compound concentration, ATP at Km app, read-out: FGFR1 inhibition.
Where [4] appears, read: read-out: % Inhibition mean FGFR1.
Setting [5] is: 10 μmolar compound concentration, ATP at Km app, read-out: PDGFRA (PDGFR alpha) inhibition.
[6] abbreviates: read-out: % Inhibition mean PDGFRA (PDGFR alpha).
The mark [7] stands for this setting: 10 μmolar compound concentration, ATP at Km app, read-out: RPS6KB1 (p70S6K) inhibition.
[8] abbreviates: read-out: % Inhibition mean RPS6KB1 (p70S6K).

Where two headings read alike, the source gives them in different places. Bounds are passed on as bounds.

Chain of CSF1R (FMS) (P07333 20-972): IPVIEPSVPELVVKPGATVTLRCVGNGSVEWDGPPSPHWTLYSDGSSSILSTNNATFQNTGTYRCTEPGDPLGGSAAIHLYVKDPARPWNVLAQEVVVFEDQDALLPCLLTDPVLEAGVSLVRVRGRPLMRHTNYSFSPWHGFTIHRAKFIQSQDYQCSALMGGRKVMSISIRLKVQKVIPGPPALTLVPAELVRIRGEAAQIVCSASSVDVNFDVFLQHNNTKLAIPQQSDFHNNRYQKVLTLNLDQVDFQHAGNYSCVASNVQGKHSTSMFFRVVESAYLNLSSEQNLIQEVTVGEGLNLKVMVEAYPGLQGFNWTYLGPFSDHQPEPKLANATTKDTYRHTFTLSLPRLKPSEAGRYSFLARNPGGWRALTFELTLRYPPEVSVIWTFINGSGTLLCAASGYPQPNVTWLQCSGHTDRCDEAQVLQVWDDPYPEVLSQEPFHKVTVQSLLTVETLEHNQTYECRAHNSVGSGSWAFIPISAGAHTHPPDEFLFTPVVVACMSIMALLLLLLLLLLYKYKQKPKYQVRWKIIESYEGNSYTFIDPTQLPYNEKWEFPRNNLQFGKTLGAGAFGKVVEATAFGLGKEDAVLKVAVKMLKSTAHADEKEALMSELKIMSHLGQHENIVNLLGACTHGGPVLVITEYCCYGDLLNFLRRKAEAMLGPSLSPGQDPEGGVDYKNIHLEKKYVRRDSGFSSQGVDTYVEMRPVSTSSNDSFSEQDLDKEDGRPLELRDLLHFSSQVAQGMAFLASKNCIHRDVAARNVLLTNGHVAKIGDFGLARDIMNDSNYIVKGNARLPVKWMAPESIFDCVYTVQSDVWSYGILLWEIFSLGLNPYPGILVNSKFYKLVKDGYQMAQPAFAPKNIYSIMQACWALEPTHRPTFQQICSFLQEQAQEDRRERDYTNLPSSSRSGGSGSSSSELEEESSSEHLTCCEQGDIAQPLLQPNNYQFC

For orientation: inhibition means the percentage by which the read-out fell short of the control. As for `CCn1ncc2c1CCC(Nc1nc3c(-c4cnccc4OC)cccn3n1)C2` (stereo not shown) [Example 68, (1-Ethyl-4,5,6,7-tetrahydro-1H-indazol-5-yl)-[8-(4-methoxy-pyridin-3-yl)-[1,2,4]triazolo[1,5-a]pyridine-2-yl]-amine], the inhibition at 10 µM at CSF1R (FMS) (setting [1]) was 40 to 80%; on CSF1R (FMS) (setting [2]), 66%; at FGFR1 (setting [3]) it was under 40%; at FGFR1 (setting [4]), 23%; on PDGFRA (PDGFR alpha) (setting [5]), under 40%; on PDGFRA (PDGFR alpha) (setting [6]) it was 23%. Further, the inhibition at 10 µM is under 40% on RPS6KB1 (p70S6K) (setting [7]) and 17% at RPS6KB1 (p70S6K) (setting [8]).

In the case of `Fc1cccc(-c2cccn3nc(Nc4ccc5[nH]cnc5c4)nc23)c1` [Cpd. 293 in WO09155551, reference compound], the inhibition at 10 µM was over 80% at CSF1R (FMS) (setting [1]); 90% at CSF1R (FMS) (read-out: % Inhibition mean); over 80% at FGFR1 (setting [3]); 93% on FGFR1 (read-out: % Inhibition mean); over 80% at PDGFRA (PDGFR alpha) (setting [5]); 88% at PDGFRA (PDGFR alpha) (read-out: % Inhibition mean). Further, the inhibition at 10 µM at RPS6KB1 (p70S6K) (setting [7]) was over 80%; on RPS6KB1 (p70S6K) (read-out: % Inhibition mean), 85%.

In the case of `CCn1ncc2c1CCC(Nc1nc3c(-c4cccnc4)cccn3n1)C2` (stereo not shown) [Example 63, (1-Ethyl-4,5,6,7-tetrahydro-1H-indazol-5-yl)-(8-pyridin-3-yl-[1,2,4]triazolo[1,5-a]pyridine-2-yl)-amine], the inhibition at 10 µM on CSF1R (FMS) (setting [1]) is 40 to 80%; on CSF1R (FMS) (setting [2]), 48%; at FGFR1 (setting [3]) it was under 40%; on FGFR1 (setting [4]) it was 18%; on PDGFRA (PDGFR alpha) (setting [5]), under 40%; on PDGFRA (PDGFR alpha) (setting [6]), 20%. For the same compound, the inhibition at 10 µM on RPS6KB1 (p70S6K) (setting [7]) was under 40%; on RPS6KB1 (p70S6K) (setting [8]), 3%.

`CCn1ncc2c1CCC(Nc1nc3c(-c4ccccc4)cccn3n1)C2` (stereo not shown) [Example 57, (1-Ethyl-4,5,6,7-tetrahydro-1H-indazol-5-yl)-(8-phenyl-[1,2,4]triazolo[1,5-a]pyridine-2-yl)-amine]: the inhibition at 10 µM at CSF1R (FMS) (setting [1]) is 40 to 80%; on CSF1R (FMS) (setting [2]) it was 72%; on FGFR1 (setting [3]), under 40%; on FGFR1 (setting [4]), 23%; on PDGFRA (PDGFR alpha) (setting [5]), under 40%; at PDGFRA (PDGFR alpha) (setting [6]) it was 29%. In addition, on RPS6KB1 (p70S6K) (setting [7]), the inhibition at 10 µM is under 40%.

In the case of `CCCCCn1ncc2c1CCC(Nc1nc3c(-c4ccc(F)cc4C)cccn3n1)C2` (stereo not shown) [Example 47, [8-(4-fluoro-2-methyl-phenyl)-[1,2,4]triazolo[1,5-a]pyridine-2-yl]-(1-pentyl-4,5,6,7-tetrahydro-1H-indazol-5-yl)-amine], the inhibition at 10 µM at CSF1R (FMS) (setting [1]) was under 40%; on CSF1R (FMS) (setting [2]), 15%; at FGFR1 (setting [3]), under 40%; at FGFR1 (setting [4]), 21%; at PDGFRA (PDGFR alpha) (setting [5]) it was under 40%; at PDGFRA (PDGFR alpha) (setting [6]) it was 10%. In addition, the results for the inhibition at 10 µM on RPS6KB1 (p70S6K) (setting [7]) and at RPS6KB1 (p70S6K) (setting [8]) were under 40% and 12%, respectively.

With `CCCn1ncc2c1CCC(Nc1nc3c(-c4ccc(F)cc4C)cccn3n1)C2` (stereo not shown) [Example 43, [8-(4-fluoro-2-methyl-phenyl)-[1,2,4]triazolo[1,5-a]pyridine-2-yl]-(1-propyl-4,5,6,7-tetrahydro-1H-indazol-5-yl)-amine], the inhibition at 10 µM is under 40% at CSF1R (FMS) (setting [1]); 28% on CSF1R (FMS) (setting [2]); under 40% on FGFR1 (setting [3]); 15% at FGFR1 (setting [4]); under 40% at PDGFRA (PDGFR alpha) (setting [5]); 16% at PDGFRA (PDGFR alpha) (setting [6]). Further, the inhibition at 10 µM at RPS6KB1 (p70S6K) (setting [7]) was under 40%; on RPS6KB1 (p70S6K) (setting [8]), 3%.

For the compound `CCn1nc(Cl)c2c1CCC(Nc1nc3c(-c4ccc(F)cc4C)cccn3n1)C2` (stereo not shown) [Example 48, (3-Chloro-1-ethyl-4,5,6,7-tetrahydro-1H-indazol-5-yl)-[8-(4-fluoro-2-methyl-phenyl)-[1,2,4]triazolo[1,5-a]pyridine-2-yl]-amine], the inhibition at 10 µM at CSF1R (FMS) (setting [1]) is under 40%; at CSF1R (FMS) (setting [2]), 15%; on FGFR1 (setting [3]), under 40%; at FGFR1 (setting [4]), 18%; at PDGFRA (PDGFR alpha) (setting [5]), under 40%; on PDGFRA (PDGFR alpha) (setting [6]), 19%. In addition, the inhibition at 10 µM was under 40% at RPS6KB1 (p70S6K) (setting [7]) and 15% on RPS6KB1 (p70S6K) (setting [8]).
